Source: US20210267207A1, “NOVEL AGROCHEMICAL COMBINATIONS” (priority 2018, published 2021)
Like-named read-outs stand apart in the source and are kept apart here.

What was measured:
[1] = format: in vivo; conditions: paddy
white ears in paddy = experiment: Field trial on white ears in paddy, number of white ears per plot; format: in vivo
stem borer = experiment: Field trial of the combination on stem borer in paddy, % mortality; format: in vivo
Procedure: Trials were conducted to test the efficacy of the combination of Chlorantraniliprole+Dinotefuran+Pymetrozine on stem borer in paddy: […]

SMILES: CC1=NNC(=O)N(/N=C/c2cccnc2)C1 [Pymetrozine]
- Yield ([1]; dose 150 gm. ai/ha): 3600
- Number of white ears per plot 7 DAA (white ears in paddy; dose 150 gm. ai/ha): 12
- Number of white ears per plot 14 DAA (white ears in paddy; dose 150 gm. ai/ha): 22
- Number of white ears per plot 21 DAA (white ears in paddy; dose 150 gm. ai/ha): 43
- % mortality 3 DAA (stem borer; dose 150 gm. ai/ha): 75%
- % mortality 7 DAA (stem borer; dose 150 gm. ai/ha): 88%
- % mortality 10 DAA (stem borer; dose 150 gm. ai/ha): 89%
- % mortality 14 DAA (stem borer; dose 150 gm. ai/ha): 79%

SMILES: CNC(=O)c1cc(Cl)cc(C)c1NC(=O)c1cc(Br)nn1-c1ncccc1Cl [Chlorantraniliprole, 3-bromo-4′-chloro-1-(3-chloro-2-pyridyl)-2′-methyl-6′-(methylcarbamoyl)pyrazole-5-carboxanilide]
- Yield ([1]; dose 30 gm. ai/ha): 4322
- Number of white ears per plot 7 DAA (white ears in paddy; dose 30 gm. ai/ha): 5
- Number of white ears per plot 14 DAA (white ears in paddy; dose 30 gm. ai/ha): 7
- Number of white ears per plot 21 DAA (white ears in paddy; dose 30 gm. ai/ha): 14
- % mortality 3 DAA (stem borer; dose 30 gm. ai/ha): 3%
- % mortality 7 DAA (stem borer; dose 30 gm. ai/ha): 7%
- % mortality 10 DAA (stem borer; dose 30 gm. ai/ha): 7.9%
- % mortality 14 DAA (stem borer; dose 30 gm. ai/ha): 6.9%

SMILES: CNC(=N[N+](=O)[O-])NCC1CCOC1 (racemic) [Dinotefuran, (EZ)—(RS)-1-methyl-2-nitro-3-(tetrahydro-3-furylmethyl)guanidine]
- Yield ([1]; dose 40 gm. ai/ha): 3500
- Number of white ears per plot 7 DAA (white ears in paddy; dose 40 gm. ai/ha): 11
- Number of white ears per plot 14 DAA (white ears in paddy; dose 40 gm. ai/ha): 19
- Number of white ears per plot 21 DAA (white ears in paddy; dose 40 gm. ai/ha): 41
- % mortality 3 DAA (stem borer; dose 40 gm. ai/ha): 65%
- % mortality 7 DAA (stem borer; dose 40 gm. ai/ha): 75%
- % mortality 10 DAA (stem borer; dose 40 gm. ai/ha): 75%
- % mortality 14 DAA (stem borer; dose 40 gm. ai/ha): 70%
